Assay results: patent publication US10082510B2, “SRC-2 use as metabolic biomarker for diagnosis and treatment of metastatic prostate cancer” (Baylor College of Medicine, priority 2014, dated 2018)

How the values were obtained:
Assay type in all cases: cell-based, human
[1] = system: SRC-2 protein in C4-2 cells; assay: Western blot of SRC-2 protein level after kinase inhibitor treatment; details: for SRC-2 protein level compared to DMSO-treated cells: Torin 250 nM, 12 hours
Description: FIG. 4—Glutamine stimulation induces mTORC1-dependent SRC-2 transcriptional activity. (A) Western blot analysis of FASN, SCD, SRC-2 and actin in C4-2 stable cells—shNT, sh18 and sh19 grown in high glucose (11 mM)/low glutamine (0.2 mM) or low glucose (5 mM)/high glutamine (2 mM). Actin was used as a control to normalize the protein loading. Semiquantitative levels of each band were analyzed by densitometry using UVP Vision Works LS software and relative values (compared to shNT) normalized to actin are indicated numerically under each lane. (B) C4-2 cells were cultured in presence of high glucose (11 mM)/low glutamine (0.2 mM) or low glucose (5 mM)/high glutamine (2 mM) and then treated with kinase inhibitors: BEZ-235 (1 uM); Rapamycin (100 nM); Torin (250 nM); and Wortmannin (250 nM). Western blot analyses were performed to measure the stability of SRC-2 protein. Semi-quantitative levels of each band were analyzed by densitometry using UVP Vision Works LS software and relative values (compared to DMSO) normalized to actin are indicated numerically under each lane. (C) Immunoprecipitation of HA-SRC-2 followed by Western immunoblot to detect the phosphorylation status of SRC-2 using phospho-serine/threonine antibody. Input lysates were obtained from C4-2 cells expressing Adv.GFP or Adv. SRC-2, and subsequently stimulated with increasing concentration of glutamine—[…] followed by treatment with DMSO or mTORC1 inhibitor-Torin (250 nM). Actin was used to normalize the input loading. Semiquantitative levels of phospho-SRC-2 were analyzed by densitometry using UVP Vision Works LS software and relative values (compared to lane 2) normalized to actin are indicated numerically under each lane. (D) PC-3 cells expressing either Adv.GFP or Adv. SRC-2 were transfected with FASN-luc construct and stimulated with high glucose (11 mM)/low glutamine (0.2 mM) or high glutamine (2 mM)/low glucose (5 mM) followed by treatment with DMSO or Torin (250 nM). Lucifrease assay was then performed to measure the FASN promoter activity and data were normalized to total protein. […]

C4-2 and PC-3 cells [2] = assay: Cell growth assay (Cellglo); details: C4-2 and PC-3 shNT cells; BPTES 1 μM, 4 days
Description: FIG. 6—SRC-2 is essential for prostate cancer cell survival. (A) Representative images depicting the growth of C4-2 stable cells—shNT, sh18 and sh19 in soft agar assay two weeks after plating. (B) Quantification of the total number of C4-2 stable cell colonies that survived after two weeks. (C) H&E stained sections of mouse lungs from experimental lung metastasis assay. Nude mice were injected with PC-3 cells stably expressing shNT, sh18 and sh19 via tail vein (n=7), and growth and survival of the cells in mouse lungs were analyzed after 5 weeks. (D) Quantification of Ki67 (antibody epitope reacts with human Ki67 protein) stained cells in the mouse lung sections from shNT, sh18 and sh19-injected animals. Refer Supplementary FIG. 14C. (E) Western blot analysis showing the expression levels of SRC-2, FASN, SCD and actin in C4-2 stable cells—shNT and sh19, and re-expression of SRC-2 in sh19 cells infected with Adv. SRC-2. Actin was used to normalize the protein loading. […]
Cells were seeded in 96-well plates in complete medium, and after the cells attached to the bottom surface they were incubated in nutrient-stressed medium. The cell growth was measured using Cellglo kit (Promega) according to manufacturer's instructions. […]

C4-2 and PC-3 cells [3] = assay: Oxygen consumption rate (Seahorse XF24); details: C4-2 and PC-3 stable cells; oligomycin 25-40 min time frame, FCCP 45-65 min time frame
Description: (A) Real-time measurement of basal and maximal oxygen consumption rate (OCR) in C4-2 stable cells—shNT, sh18 and sh19. (B, C) Basal and maximal OCR in C4-2 stable cells—shNT, sh18 and sh19 were measured in DMSO control (B) or FCCP-treated (C) cells cultured in presence of high glucose (11 mM)/low glutamine (0.2 mM) or low glucose (5 mM)/high glutamine (2 mM). […] Data are graphed as the mean±s.e.m. *P<0.05, **P<0.001 by Student's t test.
(A) Real-time measurement of basal and maximal oxygen consumption rate (OCR) in PC-3 stable cells—shNT, sh18, and sh19. (B, C) Basal and maximal OCR in PC-3 stable cells—shNT, sh18, and sh19 were measured in DMSO control or FCCP-treated cells cultured in presence of high glucose (11 mM)/low glutamine (0.2 mM) or low glucose (5 mM)/high glutamine (2 mM). […] Data are graphed as the mean±s.e.m. *P<0.05, **P<0.001 by Student's t test.
The oxygen consumption rate (OCR) was measured using a Seahorse Bioscience XF24 Extracellular Flux Analyzer according to manufacturer's protocol. Briefly, cells were seeded in triplicates at equal densities (25,000 cells per well) into XF24 tissue culture plates. […] Oxygen consumption was measured under basal conditions (DMSO), oligomycin and mitochondrial uncoupler trifluoromethoxy carbonyl cyanide phenyl 59ydrazine (FCCP) (2 mM) using the mito-stress kit (Seahorse Bioscience). […]

SRC-2 mRNA in C4-2 cells = assay: Quantitative real time PCR of SRC-2 messenger after kinase inhibitor treatment; details: Torin 250 nM
Description: FIG. 13—Glutamine stimulation activates SRC-2 transcriptional functions in an mTORC1 dependent manner. (A) Quantitative real time PCR analysis of FASN, SCD and SRC-2 in C4-2 cells were treated with siGFP (control) or siSRC-2 and cultured in nutrient stressed conditions—high glucose (11 mM)/low glutamine (0.2 mM) or low glucose (5 mM)/high glutamine (2 mM). (B) Quantitative real time PCR analysis of SRC-2 in C4-2 cells expressing siGFP (control) or siSRC-2 and then treated with BEZ-235 (1 uM); Rapamycin (100 nM); Torin (250 nM); and Wortmannin (250 nM). (C) Western blot analysis showing the expression of phospho-S6K (p-S6K), phospho-4EBP1 (p-4EBP1) and actin in C4-2 cells stimulated with increasing concentration of glutamine followed by treatment with DMSO or mTORC1 inhibitor-Torin. Actin was used to normalize the protein loading.
Total mRNA was isolated from prostate cancer cells, tissues and tumors using the RNeasy Kit (QIAGEN). Reverse transcription was carried out using Superscript VILO cDNA synthesis kit (Invitrogen, CA) according to the manufacturer's instructions. For gene expression analysis, qPCR was performed using the Taqman system (Roche) with sequence-specific primers and the Universal Probe Library (Roche). […] Data was analyzed using the comparative Ct method (ΔΔCt). […] Data obtained was analyzed using RT^2 Profiler™ PCR Array Data Analysis software (SA Bioscineces, CA). […]

[4] = system: SRC-2 serine/threonine phosphorylation in C4-2 cells; assay: Immunoprecipitation of HA-SRC-2 and phospho-serine/threonine immunoblot; details: C4-2 cells expressing Adv. SRC-2 (HA-SRC-2), glutamine stimulated; Torin 250 nM, 4 hours pre-treatment
Description: (§1) FIG. 4—Glutamine stimulation induces mTORC1-dependent SRC-2 transcriptional activity. (A) Western blot analysis of FASN, SCD, SRC-2 and actin in C4-2 stable cells—shNT, sh18 and sh19 grown in high glucose (11 mM)/low glutamine (0.2 mM) or low glucose (5 mM)/high glutamine (2 mM). Actin was used as a control to normalize the protein loading. Semiquantitative levels of each band were analyzed by densitometry using UVP Vision Works LS software and relative values (compared to shNT) normalized to actin are indicated numerically under each lane. (B) C4-2 cells were cultured in presence of high glucose (11 mM)/low glutamine (0.2 mM) or low glucose (5 mM)/high glutamine (2 mM) and then treated with kinase inhibitors: BEZ-235 (1 uM); Rapamycin (100 nM); Torin (250 nM); and Wortmannin (250 nM). Western blot analyses were performed to measure the stability of SRC-2 protein. Semi-quantitative levels of each band were analyzed by densitometry using UVP Vision Works LS software and relative values (compared to DMSO) normalized to actin are indicated numerically under each lane. […] Semiquantitative levels of phospho-SRC-2 were analyzed by densitometry using UVP Vision Works LS software and relative values (compared to lane 2) normalized to actin are indicated numerically under each lane. […]

[5] = system: SRC-2 protein stability in C4-2 cells; assay: Cycloheximide protein stability assay; details: high glutamine (2.0 mM), cycloheximide 0.5 mM, Torin 250 nM
Description: FIG. 14—Glutamine-dependent mTORC1 phosphorylation controls SRC-2 protein stability. (A) C4-2 cells were cultured in presence of low glutamine (0.2 mM) and high glutamine (2.0 mM) followed by treatment with cycloheximide (0.5 mM) for indicated time points. Western blot showing the total-level of SRC-2 and actin was used as a loading control. (B) C4-2 cells were cultured in presence of high glutamine (2.0 mM) followed by either treatment with DMSO and Torin. Cycloheximide (0.5 mM) was then added to the cells for indicated time points. Western blot showing the total-level of SRC-2 and actin was used as a loading control.
SRC-2 protein stability was studied by cycloheximide treatment experiments in C4-2 cells for different time points as described previously (Li C, Jo A, et al, 2011). C4-2 cells were cultured in low glutamine (0.2 mM) or high glutamine (2.0 mM) followed by treatment with cycloheximide (0.5 mM). For Torin treatment, C4-2 cells cultured in high glutamine were either treated with DMSO (vehicle-control) or Torin (250 nM) prior to cyclohexamide treatments. Cells were lysed followed by Western immunoblotting.

[6] = system: SRC-2 driven FASN-promoter activity in PC-3 cells; assay: FASN-luc luciferase reporter assay; details: PC-3 cells expressing Adv. SRC-2, high glutamine (2 mM)/low glucose (5 mM); Torin 250 nM
Description: as §1, with “(B) C4-2 cells were cultured in presence of high glucose (11 mM)/low glutamine (0.2 mM) or low glucose (5 mM)/high glutamine (2 mM) and then treated with kinase inhibitors: BEZ-235 (1 uM); Rapamycin (100 nM); Torin (250 nM); and Wortmannin (250 nM). Western blot analyses were performed to measure the stability of SRC-2 protein.” left out
Luciferase assays were performed using Luciferase Reporter Assay (Promega) and a Berthold 96 well plate reader. […]
Luciferase promoter constructs were obtained from following sources: FASN-Addgene, SCD-Switchgear genomics and ZIP1—Peter Makhov (Fox Chase Cancer Center). […] Cells were harvested two days after transfection and luciferase assay performed using a Luciferase Reporter Assay (Promega) and a Berthold 96 well plate reader. […]

[7] = system: recruitment of SRC-2 to the FASN and SCD promoters in C4-2 cells; assay: ChIP of SRC-2 on FASN and SCD promoters; details: glutamine stimulation (2 mM), Torin 250 nM

**Q.** Which SRC-2 protein stability ([1]; either culture condition (high glucose/low glutamine or low glucose/high glutamine), BEZ-235 1 uM) does the source give for `Cn1c(=O)n(-c2ccc(C(C)(C)C#N)cc2)c2c3cc(-c4cnc5ccccc5c4)ccc3ncc21` [BEZ-235] here?
**A.** failed to show any effect

**Q.** `O=C(Cc1ccccc1)Nc1nnc(CCSCCc2nnc(NC(=O)Cc3ccccc3)s2)s1` [BPTES] was tested. Which “Prostate cancer cell growth compared to DMSO” value (C4-2 and PC-3 cells [2]) did it give?
**A.** robust decrease

**Q.** For `N#CC(C#N)=NNc1ccc(OC(F)(F)F)cc1` [FCCP, Carbonyl cyanide 4-(trifluoromethoxy)phenylhydrazone], which “Oxygen consumption rate (OCR)” value (C4-2 and PC-3 cells [3]) is on record?
**A.** dramatically enhanced

**Q.** Which “SRC-2 protein level compared to DMSO-treated cells” value ([1]; glutamine-stimulated (low glucose 5 mM/high glutamine 2 mM), Rapamycin 100 nM) does the source give for `CCC(=O)N1CCN(c2ccc(-n3c(=O)ccc4cnc5ccc(-c6cnc7ccccc7c6)cc5c43)cc2C(F)(F)F)CC1` [Torin] here?
**A.** down-regulated

**Q.** And the “SRC-2 protein level compared to DMSO-treated cells” value ([1]; high glucose (11 mM)/low glutamine (0.2 mM), Wortmannin 250 nM)?
**A.** not observed

**Q.** And the SRC-2 messenger expression (SRC-2 mRNA in C4-2 cells)?
**A.** without any appreciable change

**Q.** And the “Glutamine-induced SRC-2-serine/threonine phosphorylation” value [4]?
**A.** reversed

**Q.** And the “Glutamine-increased SRC-2 protein stability (cycloheximide time course)” value [5]?
**A.** completely suppressed

**Q.** What about the “Glutamine dependent SRC-2 driven FASN-promoter activity” value [6] of the same compound?
**A.** significantly blocked

**Q.** And the “Glutamine dependent recruitment of SRC-2 to the FASN and SCD promoters” value [7]?
**A.** significantly blocked

**Q.** Which “Oxygen consumption rate (OCR)” value (C4-2 and PC-3 cells [3]) does the source give for `CC[C@H]1/C=C/C=C/C[C@@H](C)[C@H](O)[C@@](C)(O)C(=O)[C@@H](C)[C@H](O)[C@@H](C)C(=O)[C@@H](C)[C@H](O)[C@@H](C)/C=C/C(=O)O[C@@H]2[C@H](C)[C@H](CC1)O[C@]1(CC[C@H](C)[C@H](C[C@@H](C)O)O1)[C@H]2C` [oligomycin] here?
**A.** decreased the oxygen consumption
